Measured values from PubChem BioAssay AID248 (DTP/NCI, 2004).
Several values for one entry are separate records, joined by “and”; a condition that tells them apart may be missing. Identical values can stand only once. Toxic doses and inconclusive results are not listed. No stated cut-off is given here; in the data, active means T/C of 150% or more; inactive means T/C below 125%.

Test system: L1210 leukemia ip in BDF1 mice, survival T/C
Assay: NCI In Vivo Anticancer Drug Screen. Data for tumor model L1210 Leukemia (intraperitoneal) in B6D2F1 (BDF1) mice
Details: endpoint: mean survival time, higher = longer survival
Method in brief: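 In this screen, tumor-bearing mice given compound are compared to those given vehicle, and their survival values are reported as a treated-to-control quotient.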

[1] = dose: 100.0 mg/kg/injection, schedule: Q01DX009 (ip), vehicle: Klucel (hydroxypropylcellulose) (HPC)
[2] = dose: 200.0 mg/kg/injection, schedule: Q01DX009 (ip), vehicle: Klucel (hydroxypropylcellulose) (HPC)
[3] = dose: 400.0 mg/kg/injection, schedule: Q01DX009 (ip), vehicle: Klucel (hydroxypropylcellulose) (HPC)
[4] = dose: 100.0 mg/kg/injection, schedule: Q01DX001 (ip), vehicle: carboxymethylcellulose (CMC)
[5] = dose: 100.0 mg/kg/injection, schedule: Q01DX001 (ip), vehicle: saline
[6] = dose: 200.0 mg/kg/injection, schedule: Q01DX001 (ip), vehicle: carboxymethylcellulose (CMC)
[7] = dose: 200.0 mg/kg/injection, schedule: Q01DX001 (ip), vehicle: saline
[8] = dose: 400.0 mg/kg/injection, schedule: Q01DX001 (ip), vehicle: carboxymethylcellulose (CMC)
[9] = dose: 400.0 mg/kg/injection, schedule: Q01DX001 (ip), vehicle: saline
[10] = dose: 100.0 mg/kg/injection, schedule: Q04DX002 (ip), vehicle: saline with Tween-80
[11] = dose: 50.0 mg/kg/injection, schedule: Q01DX001 (ip), vehicle: carboxymethylcellulose (CMC)
[12] = dose: 50.0 mg/kg/injection, schedule: Q04DX003 (ip), vehicle: Klucel (hydroxypropylcellulose) (HPC)
[13] = dose: 100.0 mg/kg/injection, schedule: Q04DX003 (ip), vehicle: Klucel (hydroxypropylcellulose) (HPC)

Measured: T/C

CCOC(=O)c1cn(C2OC(COC(=O)c3ccccc3)C(OC(=O)c3ccccc3)C2OC(=O)c2ccccc2)c(=O)nc1Nc1ccccc1Cl (centres undefined)
inactive: dose: 25.0 mg/kg/injection, schedule: Q01DX005 (ip), vehicle: saline 104 % of control | dose: 50.0 mg/kg/injection, schedule: Q01DX005 (ip), vehicle: saline 105 % of control | dose: 75.0 mg/kg/injection, schedule: Q01DX005 (ip), vehicle: saline 105 % of control | dose: 100.0 mg/kg/injection, schedule: Q01DX005 (ip), vehicle: saline 123 % of control | dose: 200.0 mg/kg/injection, schedule: Q01DX005 (ip), vehicle: saline 92 % of control

CC(C)=Cc1cc(C)ccc1OC(=O)c1ccc([N+](=O)[O-])cc1
inactive: dose: 100.0 mg/kg/injection, schedule: Q01DX001 (ip), vehicle: Klucel (hydroxypropylcellulose) (HPC) 102 % of control | [1] 97 % of control | dose: 200.0 mg/kg/injection, schedule: Q01DX001 (ip), vehicle: Klucel (hydroxypropylcellulose) (HPC) 91 % of control | [2] 101 % of control | dose: 400.0 mg/kg/injection, schedule: Q01DX001 (ip), vehicle: Klucel (hydroxypropylcellulose) (HPC) 103 % of control | [3] 104 % of control

NC1CC(c2ccccc2)NC(c2ccccc2)C1 (centres undefined)
inactive: dose: 15.0 mg/kg/injection, schedule: Q01DX001 (ip), vehicle: carboxymethylcellulose (CMC) 100 % of control

CC[n+]1ccc(-c2ccc(S(=O)(=O)[O-])cc2)o1
inactive: dose: 50.0 mg/kg/injection, schedule: Q04DX003 (ip), vehicle: saline 108 % of control | [4] 96 % of control | [5] 105 % of control | dose: 100.0 mg/kg/injection, schedule: Q04DX003 (ip), vehicle: saline 93 % of control | [6] 96 % of control | [7] 105 % of control | dose: 200.0 mg/kg/injection, schedule: Q04DX003 (ip), vehicle: saline 105 % of control | [8] 100 % of control | [9] 105 % of control

NC(N)=NC(N)=NCc1ccc(S(N)(=O)=O)cc1
inactive: [5] 102 % of control | dose: 100.0 mg/kg/injection, schedule: Q01DX009 (ip), vehicle: saline 96 % of control | [7] 94 % of control | dose: 200.0 mg/kg/injection, schedule: Q01DX009 (ip), vehicle: saline 100 % of control | [9] 103 % of control | dose: 400.0 mg/kg/injection, schedule: Q01DX009 (ip), vehicle: saline 97 % of control

CSc1cccc(NC(=O)Nc2ccc(Cl)cc2)c1
inactive: [10] 104 % of control | dose: 200.0 mg/kg/injection, schedule: Q04DX002 (ip), vehicle: saline with Tween-80 93 % of control | dose: 400.0 mg/kg/injection, schedule: Q04DX002 (ip), vehicle: saline with Tween-80 89 % of control

CCOC(=O)CC(=O)NC(C)(CCOCc1ccccc1)C(=O)OCC (centres undefined)
inactive: [11] 101 % of control | [4] 103 % of control | [6] 110 % of control | [8] 103 % of control

COc1ccc(Nc2cc(=O)[nH]c(N)n2)cc1
inactive: dose: 100.0 mg/kg/injection, schedule: Q01DX Z (ip), vehicle: methylcellulose (MC) 112 % of control | dose: 200.0 mg/kg/injection, schedule: Q01DX Z (ip), vehicle: methylcellulose (MC) 108 % of control

CCCCOP(=O)(OCCCC)N(C)c1ccccc1
inactive: dose: 25.0 mg/kg/injection, schedule: Q04DX002 (ip), vehicle: saline with Tween-80 89 % of control | dose: 50.0 mg/kg/injection, schedule: Q04DX002 (ip), vehicle: saline with Tween-80 95 % of control | [10] 92 % of control and 93 % of control

CCCCCCCCOc1ccc(C=Nc2ccc(C)cc2)cc1
inactive: [1] 98 % of control | [2] 104 % of control | [3] 92 % of control

c1ccc(C2=Nc3ccccc3NC2c2ccccc2)cc1 (centres undefined)
inactive: [12] 100 % of control | [13] 89 % of control | dose: 200.0 mg/kg/injection, schedule: Q04DX003 (ip), vehicle: Klucel (hydroxypropylcellulose) (HPC) 98 % of control

CCCCCc1ccccc1
inactive: dose: 200.0 mg/kg/injection, schedule: Q01DX Z (ip), vehicle: carboxymethylcellulose (CMC) 103 % of control | dose: 400.0 mg/kg/injection, schedule: Q01DX Z (ip), vehicle: carboxymethylcellulose (CMC) 108 % of control | dose: 800.0 mg/kg/injection, schedule: Q01DX Z (ip), vehicle: carboxymethylcellulose (CMC) 91 % of control

CCC(Cl)COP(=O)(OCC(Cl)CC)C(CC)OP(=S)(OCC(Cl)CC)OCC(Cl)CC (centres undefined)
inactive: dose: 87.5 mg/kg/injection, schedule: Q01DX009 (ip), vehicle: Klucel (hydroxypropylcellulose) (HPC) 95 % of control | dose: 175.0 mg/kg/injection, schedule: Q01DX009 (ip), vehicle: Klucel (hydroxypropylcellulose) (HPC) 99 % of control

O=C(CCl)NC1=C(N2CC2)C(=O)c2ccccc2C1=O
inactive: [12] 93 % of control | [13] 91 % of control

C=CS(=O)(=O)Cc1ccc(Cl)cc1
inactive: dose: 10.0 mg/kg/injection, schedule: Q04DX002 (ip), vehicle: Klucel (hydroxypropylcellulose) (HPC) 117 % of control | dose: 20.0 mg/kg/injection, schedule: Q04DX002 (ip), vehicle: Klucel (hydroxypropylcellulose) (HPC) 106 % of control | dose: 40.0 mg/kg/injection, schedule: Q04DX002 (ip), vehicle: Klucel (hydroxypropylcellulose) (HPC) 98 % of control

Cn1c(N)c(C(=O)CCCc2ccc(N(CCCl)CCCl)cc2)c(=O)n(C)c1=O
inactive: [11] 102 % of control | [4] 107 % of control | [6] 105 % of control | [8] 102 % of control

Cc1ccc(S(=O)(=O)NNC(=O)c2ccc(-c3ccc[nH]3)[nH]2)cc1
inactive: dose: 75.0 mg/kg/injection, schedule: Q01DX001 (ip), vehicle: saline 93 % of control | dose: 150.0 mg/kg/injection, schedule: Q01DX001 (ip), vehicle: saline 92 % of control | dose: 300.0 mg/kg/injection, schedule: Q01DX001 (ip), vehicle: saline 98 % of control

Cc1ccc(-n2c(N)cc(=O)[nH]c2=S)nc1
inactive: dose: 100.0 mg/kg/injection, schedule: Q04DX002 (ip), vehicle: saline 96 % of control | dose: 200.0 mg/kg/injection, schedule: Q04DX002 (ip), vehicle: saline 100 % of control | dose: 400.0 mg/kg/injection, schedule: Q04DX002 (ip), vehicle: saline 107 % of control

N#CS/C=C\C(=O)O
inactive: dose: 3.12 mg/kg/injection, schedule: Q01DX001 (ip), vehicle: saline with Tween-80 95 % of control and 101 % of control | dose: 3.12 mg/kg/injection, schedule: Q01DX009 (ip), vehicle: saline with Tween-80 93 % of control | dose: 3.12 mg/kg/injection, schedule: Q04DX003 (ip), vehicle: saline with Tween-80 107 % of control | dose: 6.25 mg/kg/injection, schedule: Q01DX001 (ip), vehicle: saline with Tween-80 95 % of control and 101 % of control | dose: 6.25 mg/kg/injection, schedule: Q01DX009 (ip), vehicle: saline with Tween-80 98 % of control and 102 % of control | dose: 6.25 mg/kg/injection, schedule: Q04DX003 (ip), vehicle: saline with Tween-80 96 % of control and 100 % of control | dose: 12.5 mg/kg/injection, schedule: Q01DX001 (ip), vehicle: saline with Tween-80 94 % of control and 103 % of control and 105 % of control | dose: 12.5 mg/kg/injection, schedule: Q01DX009 (ip), vehicle: saline with Tween-80 95 % of control and 102 % of control | dose: 12.5 mg/kg/injection, schedule: Q04DX003 (ip), vehicle: saline with Tween-80 102 % of control and 103 % of control | dose: 25.0 mg/kg/injection, schedule: Q01DX001 (ip), vehicle: saline with Tween-80 94 % of control and 103 % of control | dose: 25.0 mg/kg/injection, schedule: Q01DX009 (ip), vehicle: saline with Tween-80 100 % of control and 92 % of control | dose: 25.0 mg/kg/injection, schedule: Q04DX003 (ip), vehicle: saline with Tween-80 93 % of control and 98 % of control | dose: 50.0 mg/kg/injection, schedule: Q01DX001 (ip), vehicle: saline with Tween-80 100 % of control | dose: 50.0 mg/kg/injection, schedule: Q04DX003 (ip), vehicle: saline with Tween-80 97 % of control

C=CCNC(=S)Nc1ccc(N(C)C)cc1
inactive: dose: 50.0 mg/kg/injection, schedule: Q01DX009 (ip), vehicle: saline with Tween-80 94 % of control | dose: 100.0 mg/kg/injection, schedule: Q01DX009 (ip), vehicle: saline with Tween-80 100 % of control | dose: 100.0 mg/kg/injection, schedule: Q04DX003 (ip), vehicle: saline with Tween-80 103 % of control | dose: 200.0 mg/kg/injection, schedule: Q01DX009 (ip), vehicle: saline with Tween-80 103 % of control | dose: 200.0 mg/kg/injection, schedule: Q04DX003 (ip), vehicle: saline with Tween-80 95 % of control
